Tests used:
[1] = test system: human airway epithelial cells (HAECs); experiment: Agilent miRNA chips, miRNA expression at four stages of differentiation of HAECs; settings: for Modulation (ratio of the level of intensity of expression in log2 in two stages of differentiation) measured with the Agilent chips, D7 − D0 / Modulation (ratio of the level of intensity of expression in log2 in two stages of differentiation) measured with the Agilent chips, FC − D7 / Modulation (ratio of the level of intensity of expression in log2 in two stages of differentiation) measured with the Agilent chips, WD − D0 / Modulation (ratio of the level of intensity of expression in log2 in two stages of differentiation) measured with the Agilent chips, WD − FC / Level of intensity of expression in log2 measured with the Agilent chips, D0 / Level of intensity of expression in log2 measured with the Agilent chips, D7 / Level of intensity of expression in log2 measured with the Agilent chips, FC / Level of intensity of expression in log2 measured with the Agilent chips, WD: Table VI; for Modulation (ratio of the level of intensity of expression in log2 at two stages of differentiation), FC − D7 / Modulation (ratio of the level of intensity of expression in log2 at two stages of differentiation), WD − FC: Agilent miRNA chips, Table V; for Level of intensity of expression in log2 measured with the Agilent chips, D0: stage D0; for Level of intensity of expression in log2 measured with the Agilent chips, D7: stage D7; for Level of intensity of expression in log2 measured with the Agilent chips, FC: stage FC; for Level of intensity of expression in log2 measured with the Agilent chips, WD: stage WD
Outline: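 Arrays probing 866 human and 89 human viral miRNAs were used in parallel with sequencing. The same patients' RNA was labelled and hybridized following the manufacturer's protocol.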

[2] = test system: human airway epithelial cells (HAECs); experiment: High-throughput sequencing (HTS) of miRNAs at four stages of differentiation of HAECs; settings: for Modulation (ratio of the level of intensity of expression in log2 in two stages of differentiation) measured by high-throughput sequencing, D7 − D0 / Modulation (ratio of the level of intensity of expression in log2 in two stages of differentiation) measured by high-throughput sequencing, FC − D7 / Modulation (ratio of the level of intensity of expression in log2 in two stages of differentiation) measured by high-throughput sequencing, WD − D0 / Modulation (ratio of the level of intensity of expression in log2 in two stages of differentiation) measured by high-throughput sequencing, WD − FC / Level of intensity of expression in log2 measured by high-throughput sequencing, D0 / Level of intensity of expression in log2 measured by high-throughput sequencing, D7 / Level of intensity of expression in log2 measured by high-throughput sequencing, FC / Level of intensity of expression in log2 measured by high-throughput sequencing, WD: Table VI; for Level of intensity of expression in log2 At the differentiated stage (WD) measured in HTS: healthy human airway epithelial tissue; for Level of intensity of expression in log2 measured by high-throughput sequencing, D0: stage D0; for Level of intensity of expression in log2 measured by high-throughput sequencing, D7: stage D7; for Level of intensity of expression in log2 measured by high-throughput sequencing, FC: stage FC; for Level of intensity of expression in log2 At the differentiated stage (WD) measured in HTS / Level of intensity of expression in log2 measured by high-throughput sequencing, WD: stage WD
Outline: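 Reads per 5p and 3p strand scaled to 10^6 sequences, then to percentage abundance; linear model plus empirical Bayes normalization. Retained miRNAs exceeded 1% of total in at least one condition, with |Log2 Ratio| below 0.5 and adjusted P-value below 0.05.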

[3] = test system: basal cells and pyramidal cells of the airway epithelium; experiment: miRNA expression in sorted basal cells versus pyramidal cells (ciliated + secretory), HTS and Agilent chips; set-up: species or system human; settings: for Modulation of expression of the miRNAs in pyramidal cells (323(−)) relative to basal cells 323(+): HTS and Agilent chips; for Intensity of the level of expression in log2 in pyramidal cells (323(−)): pyramidal cells (ciliated + secretory)
Outline: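 Nasal polyp or concha epithelial cells from 3 donors were stained with CD151-PE and anti-tissue factor-FITC for 20 min at 4° C, with DAPI excluding damaged cells. CD151+/TF+ basal and CD151−/TF− ciliated/secretory cells were FACS-sorted; total RNA miRNA profiles came from Agilent chips or high-throughput sequencing.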

Substance	Modulation (ratio of the level of intensity of expression in log2 in two stages of differentiation) measured with the Agilent chips, D7 − D0 [1]	Modulation (ratio of the level of intensity of expression in log2 at two stages of differentiation), FC − D7 [1]	Modulation (ratio of the level of intensity of expression in log2 in two stages of differentiation) measured with the Agilent chips, FC − D7 [1]	Modulation (ratio of the level of intensity of expression in log2 in two stages of differentiation) measured with the Agilent chips, WD − D0 [1]	Modulation (ratio of the level of intensity of expression in log2 at two stages of differentiation), WD − FC [1]	Modulation (ratio of the level of intensity of expression in log2 in two stages of differentiation) measured with the Agilent chips, WD − FC [1]	Level of intensity of expression in log2 measured with the Agilent chips, D0 [1]	Level of intensity of expression in log2 measured with the Agilent chips, D7 [1]	Level of intensity of expression in log2 measured with the Agilent chips, FC [1]	Level of intensity of expression in log2 measured with the Agilent chips, WD [1]	Modulation (ratio of the level of intensity of expression in log2 in two stages of differentiation) measured by high-throughput sequencing, D7 − D0 [2]	Modulation (ratio of the level of intensity of expression in log2 in two stages of differentiation) measured by high-throughput sequencing, FC − D7 [2]	Modulation (ratio of the level of intensity of expression in log2 in two stages of differentiation) measured by high-throughput sequencing, WD − D0 [2]	Modulation (ratio of the level of intensity of expression in log2 in two stages of differentiation) measured by high-throughput sequencing, WD − FC [2]	Level of intensity of expression in log2 At the differentiated stage (WD) measured in HTS [2]	Level of intensity of expression in log2 measured by high-throughput sequencing, D0 [2]	Level of intensity of expression in log2 measured by high-throughput sequencing, D7 [2]	Level of intensity of expression in log2 measured by high-throughput sequencing, FC [2]	Level of intensity of expression in log2 measured by high-throughput sequencing, WD [2]	Modulation of expression of the miRNAs in pyramidal cells (323(−)) relative to basal cells 323(+) [3]	other results
hsa-miR-27b: human miRNA, SEQ ID No. 30 (UUCACAGUGGCUAAGUUCUGC; expressed or natural sequence; listed as Homo sapiens)	1.77 log2	−0.47 log2	−0.47 log2	1.36 log2	0.05 log2	0.05 log2	9.26 log2	11.03 log2	10.57 log2	10.62 log2	0.64 log2	−0.69 log2	−0.11 log2	−0.06 log2	14.81 log2	6.92 log2	7.57 log2	6.88 log2	6.81 log2	−3.56	Intensity of the level of expression in log2 in basal cells (323(+)) [3]: 9.77 log2; Intensity of the level of expression in log2 in pyramidal cells (323(−)) [3]: 6.21 log2
hsa-miR-224: human miRNA, SEQ ID No. 24 (CAAGUCACUAGUGGUUCCGUU; expressed or natural sequence; listed as Homo sapiens)	2.55 log2	−0.87 log2	−0.87 log2	1.68 log2	0.00 log2	0.00 log2	6.84 log2	9.40 log2	8.52 log2	8.52 log2	1.52 log2	−0.72 log2	1.63 log2	0.83 log2	14.10 log2	9.59 log2	11.12 log2	10.39 log2	11.22 log2	−2.84	Intensity of the level of expression in log2 in basal cells (323(+)) [3]: 3.65 log2; Intensity of the level of expression in log2 in pyramidal cells (323(−)) [3]: 0.82 log2
hsa-let-7g: human miRNA, SEQ ID No. 162 (UGAGGUAGUAGUUUGUACAGUU; expressed or natural sequence; listed as Homo sapiens)	1.83 log2	−0.54 log2	−0.54 log2	1.50 log2	0.21 log2	0.21 log2	9.30 log2	11.12 log2	10.59 log2	10.80 log2	−0.24 log2	−0.03 log2	0.56 log2	0.83 log2	12.40 log2	11.84 log2	11.60 log2	11.57 log2	12.40 log2	−0.15	Intensity of the level of expression in log2 in basal cells (323(+)) [3]: 8.37 log2; Intensity of the level of expression in log2 in pyramidal cells (323(−)) [3]: 8.22 log2
hsa-miR-29c: human miRNA, SEQ ID No. 32 (UAGCACCAUUUGAAAUCGGUUA; expressed or natural sequence; listed as Homo sapiens)	1.61 log2	−0.28 log2	−0.28 log2	1.57 log2	0.24 log2	0.24 log2	9.04 log2	10.66 log2	10.38 log2	10.62 log2	0.82 log2	0.02 log2	0.87 log2	0.03 log2	9.74 log2	13.66 log2	14.48 log2	14.50 log2	14.53 log2	−3.06	Modulation (ratio of the level of intensity of expression in log2 in two stages of differentiation), D7 − D0 ([2]; HTS): 0.82 log2; Modulation (ratio of the level of intensity of expression in log2 in two stages of differentiation), FC − D7 ([2]; HTS): 0.02 log2; Modulation (ratio of the level of intensity of expression in log2 in two stages of differentiation), WD − FC ([2]; HTS): 0.03 log2; Abundance (%), D0 ([2]; HTS, ALI-D0): 2.84%; Abundance (%), D7 ([2]; HTS, ALI-D7): 5.03%; Abundance (%), FC ([2]; HTS, ALI-FC): 4.95%; Abundance (%), WD ([2]; HTS, ALI-WD): 3.82%; Intensity of the level of expression in log2 in basal cells (323(+)) [3]: 11.06 log2; Intensity of the level of expression in log2 in pyramidal cells (323(−)) [3]: 8.00 log2

Source: patent publication US9023821B2, “Use of MicroRNA for treating diseases associated with a dysfunction of the cilia in multiciliated epithelial cells” (Centre National de la Recherche Scientifique, priority 2009, dated 2015)
